Measurements from BigSolDB 2.1.

N#Cc1c(Cl)c(Cl)c(Cl)c(C#N)c1Cl
solubility (mole fraction)
Conditions | in 1,4-dioxane | in DMAc | in DMF | in MIBK | in THF | in acetone | in acetonitrile | in cyclohexanone | in ethyl acetate | in n-propyl acetate
288.15 K | 0.0082 | 0.017 | 0.00992 | 0.00381 | 0.00909 | 0.00369 | 0.00134 | 0.0079 | 0.00311 | 0.0033
293.15 K | 0.00951 | 0.0191 | 0.0111 | 0.00447 | 0.0102 | 0.00443 | 0.00161 | 0.00905 | 0.00374 | 0.00384
298.15 K | 0.0109 | 0.0211 | 0.0128 | 0.00509 | 0.012 | 0.00512 | 0.00193 | 0.0106 | 0.00435 | 0.00444
303.15 K | 0.0118 | 0.0239 | 0.0142 | 0.00603 | 0.0137 | 0.00566 | 0.00228 | 0.0123 | 0.00496 | 0.00523
308.15 K | 0.0136 | 0.0264 | 0.0155 | 0.00668 | 0.0155 | 0.00682 | 0.00272 | 0.0135 | 0.00543 | 0.00566
313.15 K | 0.015 | 0.03 | 0.0177 | 0.00802 | 0.0172 | 0.00779 | 0.00308 | 0.0154 | 0.00643 | 0.0067
318.15 K | 0.0177 | 0.0334 | 0.0197 | 0.0102 | 0.0208 | 0.00932 | 0.00413 | 0.019 | 0.00744 | 0.0079
323.15 K | 0.0215 | 0.0359 | 0.0233 | 0.0115 | 0.023 | 0.0113 | 0.00462 | 0.0222 | 0.00893 | 0.00904
